Measured values taken from patent US20230234931A1, “NON-STEROIDAL ANTI-INFLAMMATORY COMPOUNDS” (University of Houston System, priority 2022, published 2023).

Legend:
COX-2-10aa-mPGES-1 = target: T1, COX-2-10aa-mPGES-1 (Homo sapiens, UniProt O14684+P35354); assay: Inhibition of PGE2 production in HEK293 cells expressing Enzymelink COX-2-10aa-mPGES-1; format: cell-based; settings: HEK-293 cells, 1, 3 and 10 μM, arachidonic acid 0.5 μM, PGE2 by ELISA, compared with NS-398 (FIG. 9)
T1 construct: COX-2 (fusion partner); gene PTGS2, human entry P35354 by own knowledge; expressed in transfected cells; host or cells: HEK293
T1 sequence (P35354+O14684 with tags, fused parts or gaps): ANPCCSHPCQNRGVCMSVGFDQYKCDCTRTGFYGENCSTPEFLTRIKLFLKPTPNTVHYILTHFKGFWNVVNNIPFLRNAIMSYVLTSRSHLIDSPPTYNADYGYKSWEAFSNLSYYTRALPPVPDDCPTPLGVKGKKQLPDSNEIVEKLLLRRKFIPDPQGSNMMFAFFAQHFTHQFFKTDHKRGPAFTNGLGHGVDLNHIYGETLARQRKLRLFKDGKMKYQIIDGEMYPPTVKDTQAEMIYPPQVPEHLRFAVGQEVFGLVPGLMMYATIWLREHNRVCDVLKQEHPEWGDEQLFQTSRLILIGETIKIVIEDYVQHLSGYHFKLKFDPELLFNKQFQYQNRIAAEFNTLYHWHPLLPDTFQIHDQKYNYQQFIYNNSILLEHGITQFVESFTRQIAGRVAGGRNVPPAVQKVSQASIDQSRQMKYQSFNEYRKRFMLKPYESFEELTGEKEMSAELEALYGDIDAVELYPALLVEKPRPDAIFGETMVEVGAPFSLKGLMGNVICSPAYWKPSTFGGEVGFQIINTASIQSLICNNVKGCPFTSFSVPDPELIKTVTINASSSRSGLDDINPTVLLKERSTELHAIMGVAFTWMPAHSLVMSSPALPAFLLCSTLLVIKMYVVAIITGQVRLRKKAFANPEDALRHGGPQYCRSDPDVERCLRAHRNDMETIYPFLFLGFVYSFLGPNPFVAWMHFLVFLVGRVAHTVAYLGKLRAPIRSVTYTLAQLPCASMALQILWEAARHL
Procedure: FIG. 9. Dose response curves for the effects of the synthesized derivatives on mPGES-1-synthesized inflammatory PGE2, compared with COX-2 inhibitor. HEK-293 cells expressing inflammatory PGE-producing Enzymelink, COX-2-10aa-mPGES-1 described previously (11) were treated with increasing concentrations (1 μM, 3 μM, and 10 μM), of the derivatives. Arachidonic acid (0.5 μM) was added to initiate the biosynthesis of PGE2 through COX-2 and mPGES-1 catalysis (11). The produced PGE2 was detected by ELISA (11). COX-2 inhibitor, NS-398 was used as positive control. An unrelated chemical compound (#6) was used as a negative control.
COX linked PG synthase cDNAs of the hybrid enzyme COX-2 C-terminus was linked to the PGES N-terminus with 10 amino acids (COX-2-10aa-PGES) was constructed by a polymerase chain reaction (PCR) cloning approach. The resultant cDNA was sub-cloned into pcDNATM3.1 vectors containing a cytomegalovirus immediate-early promoter (11, 16).
The recombinant enzyme was expressed in HEK293 cells. […] The enzyme expressions were determined by a Western blot analysis. […]
The effect of compounds that inhibited PGE2 production were determined by HPLC. […]
The inhibitory effect on PGE2 production by mPGES-1 was determined by using previously developed HEK293 cells expressing our engineered Enzymelink, COX-2-10aa-mPGES-1.

PC-3 cells = assay: Cancer cell PC-3 migration assay (gap size); format: cell-based; settings: after 39 hours of culture, compared with NS-398
Procedure: FIG. 10A-C. Anti-inflammatory and anti-cancer activities in cell cultural conditions. PC-3 migration assay treated with the lead compound #10. FIG. 10A The representative images of the PC-3 migration at 0 hour (left) and 39 hours (right) with DMSO, NS-398, and #10. FIG. 10B The time-course gap size of the PC-3 migration. The gap size was obtained using NIS-element software (NIKON). n=6. FIG. 10C Quantitative and significant analyses.
One day before the experiment, about 8.4×10^6 of PC-3 cells were cultured in 6-well plates with 2 mL of growth medium. A marker line was drawn on the outside plates to identify viewing spots. The medium was pre-warmed, and each treatment (DMSO, NS-398, and #10) was mixed with the medium. The cells were washed with PBS and replaced with 1.5 mL of medium containing a treatment, and observed at 0, 15, 24, and 39-hour points. NIS-element AR 3.0 (Nikon Instruments Inc.) software was used to take images at different time points with 10× magnification, and to measure gap sizes.
Inflammation is a factor that stimulates cell migration and is associated with a wide range of ailments including cancer (29). Inflammatory PGE2 produced by mPGES-1 has been reported to be directly associated with cancer cell migration and development (30-33). […] After 39 hours of culture, the gaps were measured (FIG. 10A) and quantified (FIG. 10B and FIG. 10C). […]

Compound	inhibition of inflammatory PGE2 production (COX-2-10aa-mPGES-1)	inhibition of cancer cell migration within the gaps (PC-3 cells)
2-[4-(trimethyl) phenyl]-1,3-benzoxazol-5-amine [3-Methyl]	able to inhibit inflammatory PGE2 production with very similar dose-response concentrations of the COX-2 inhibitor	very effective inhibition of cancer cell migration
Nc1ccc2oc(-c3ccc(C(F)(F)F)cc3)nc2c1 [3-F, 2-[4-(trifluoromethyl)phenyl]-1,3-benzoxazol-5-amine]	able to inhibit inflammatory PGE2 production with very similar dose-response concentrations of the COX-2 inhibitor	very effective inhibition of cancer cell migration
